Experimental data published in patent publication US9314439B2, “Composition and method for muscle repair and regeneration” (Thomas Jefferson University, priority 2010, dated 2016).
Entries after “also recorded” stand apart in the source; their conditions may differ.

How the values were obtained:
RXR receptors = conditions: cited from earlier work
[1] = system: muscle defect in calf or anterior tibial muscles; assay: muscle defect mouse model, systemic or local administration of RAR agonist; assay type: in vivo; conditions: for muscle repair: 100 μg/gavage/day at day 8, 10 and 12 from injury, 4 weeks after surgery
From the text: Histological Procedures. To inspect muscle tissue structure, samples were fixed in 4% PFA and embedded in paraffin. Five μm serial sections were stained by either H&E (http://www.ihcworld.com/_protocols/special_stains/HE_Mayer.htm) or Masson's trichrome staining solution (http://www.ihcworld.com/_protocols/special_stains/masson_trichrome.htm). To detect adipose tissue, 4% PFA fixed samples were equilibrated in 20% sucrose in PBS, embedded in OCT compound and then sectioned by cryostat. Ten μm cryosections were dried, rehydrated and then stained with Oil-red O (http://www.ihcworld.com/_protocols/special_stains/oil_ red o.htm).
Immuno-Fluorescence. For the detection of various antigens in tissue sections, 5 μm paraffin sections were de-paraffinized, re-hydrated and then treated with 0.1% pepsin in 0.02 N HCl for 15 min at 37° C. Sections were washed three times in PBS-T and blocked in 10% normal goat serum with 0.3% BSA. Sections were incubated with 1st antibody, washed three times with PBS-T and then incubated with 2nd antibody. The list of antigens, antibodies and their dilutions are shown below.
Local and Systemic Administration of RAR Agonist. Systemic administration of RAR agonist was carried out by gavage as described previously (Shimono et al. J. Orthop. Res. 28:271-277, 2010). Local delivery of RAR agonist was done by injecting RAR agonist (dissolved in DMSO) using Hamilton syringe 87943 with 26G needle.
A muscle defect mouse model was used to investigate the muscle repair stimulation by administration of RAR gamma-agonists. A round-shaped defect was created with an electric cautery in calf or anterior tibial muscles in 8 week-old mice resulting in a 2.0 mm×2.0 mm×2.0 mm defect.
Round-shaped defects were created in calf-muscle tissue of 8 weeks old mice as above (one muscle defect/mouse). […] Tissue was collected for histological analysis on day 14.
[…] Tissues were collected for histological analysis at 2 and 4 weeks. Macro-photos of injured muscle tissue collected from control and RAR gamma-agonist (CD1530)-treated mice were taken at 4 weeks after injury.
Histological analysis of skeletal muscle tissue was performed 4 weeks after injury. Serial transverse sections of muscle tissue specimens collected 4 weeks after injury (same samples as discussed directly above) were stained with Masson's trichrome or processed for immuno-staining with antibodies to laminin (an extracellular protein abundant around muscle cells). […] To evaluate and quantify the changes of skeletal muscle tissue structure, images of trichrome-stained serial sections were taken and the relative amounts of muscle fiber, adipose and fibrous tissues were determined in multiple defined areas by ImagePro software. The analyzed areas were 9×9 grids each (about 3×3 mm) that included the original injured site (2×2 mm).
The effects of various retinoid agonists on skeletal muscle repair were examined Macro photographs were taken of muscle injury sites at the 4-week time point.

[2] = system: mouse bone marrow-derived mesenchymal stem cell (BMSC) cultures; assay: myogenic differentiation in mouse BMSC cultures; assay type: cell-based; conditions: 7 days, 5% FBS DMEM
Procedure: MSCs were isolated as described previously (ref) with minor modification. Briefly, mouse bone marrow cells (1−2×10^7) harvested from long bones of 4-6 weeks old mice were seeded onto 100-mm culture dishes, incubated for 3 hours at 37° C. to allow attachment of adherent cells, and then rinsed twice with PBS to remove the nonadherent cells. The bone marrow-derived MSCs formed adherent colonies after 12-15 days of culture. Primary cultures were passed to disperse the colony-forming cells (passage 1). The cells were then subcultured again when they reached 70% confluent. Cells were maintained in α-MEM (Gibco BRL; Invitrogen Corp.) containing 20% fetal bovine serum (FBS; Equitech-Bio Inc.), 2 mM L-glutamine, a combination of 100 U/ml penicillin and 100 μg/ml streptomycin (Biofluids Inc.), and 55 μM 2-mercaptoethanol (Gibco BRL; Invitrogen Corp.) before the first passage. After the first passage, cells were maintained in 10% FBS, α-MEM unless indicated.
The differential effects of retinoid agonists on myogenic differentiation in mouse bone marrow-derived mesenchymal stem cell (BMSC) cultures were investigated. BMSCs were prepared from femurs and tibias of 6 week-old mice by standard methods and maintained in 5% FBS DMEM for 7 days in presence of 0.1% DMSO (vehicle: Control), 1 μM all-trans retinoic acid (RA) (commercially available from Sigma), 1 μM RAR alpha-agonist (obtained from NuRx Pharmaceuticals) or 30 nM RAR gamma-agonist (CD1530, commercially available).

[3] = system: mesenchymal stem cell line; assay: MyoD and Myf5 immunostaining in mesenchymal stem cell (MSC) cultures; assay type: cell-based; conditions: 100 nM, 10 days
Procedure: Cells from a mesenchymal stem cell line were cultured for 10 days in the presence or absence of RAR gamma-agonist (CD1530, 100 nM). Cultures were processed for immunostaining with MyoD or Myf5 antibodies or stained with nuclear dye DAPI. […] Results indicated an increase in MyoD and Myf5 levels by the RAR gamma-agonist in mesenchymal stem cell (MSC) cultures.

RAR subtypes = conditions: cited from earlier work
[4] = 100 ng on day 5, 7 and 9, 4 weeks after injury
[5] = 300 μg by gavage on day 8, 10 and 12, 4 weeks after injury
[6] = 300 μg/day by gavage on day 8, 10 and 12, 4 weeks after injury
[7] = 900 μg by gavage on day 8, 10 and 12, 4 weeks after injury

Structure (SMILES): CC1=C(/C=C/C(C)=C\C=C\C(C)=C\C(=O)O)C(C)(C)CCC1 [9-cis retinoic acid]
- binding to the RXR receptors (RXR receptors): natural ligand

Structure (SMILES): O=C(O)c1ccc2cc(-c3ccc(O)c(C45CC6CC(CC(C6)C4)C5)c3)ccc2c1 [CD437, 6-(4-Hydroxy-3-tricyclo[3.3.1.13,7]dec-1-ylphenyl)-2-naphthalenecarboxylic acid]
- muscle repair [1]: induced effective muscle repair

Structure (SMILES): O=C(O)c1ccc(-c2ccc3cc(O)c(C45CC6CC(CC(C6)C4)C5)cc3c2)cc1 [CD1530, 4-(6-Hydroxy-7-tricyclo[3.3.1.13,7]dec-1-yl-2-naphthalenyl)benzoic acid]
- formation of elongated multinucleated muscle cells ([2]; 30 nM): Many elongated multinucleated muscle cells formed
- Myf5 immunostaining [3]: clearly present
- MyoD immunostaining [3]: clearly present
- HE histology of muscle defect ([1]; 100 ng on day 1, 3, 5, 7 and 9, 4 weeks after injury): decreased adipose and fibrous scar tissue formation but left a large indentation
- HE histology of muscle defect ([1]; 100 ng on day 1, 3 and 5, 4 weeks after injury): decreased adipose and fibrous scar tissue formation but left a large indentation
- indentation at muscle defect [1, 4]: much reduced indentation
- quality and amount of newly formed muscle tissue [1, 4]: best
- repair of muscle defects after local administration ([1]; 3 μg injected subcutaneously around the injury site on day 8 and 10, 4 weeks): almost completely repaired
- macroscopic appearance of injury site [1, 5]: almost no visible sign of the original defect; also recorded: essentially invisible
- tissue composition (relative amounts of muscle fiber, adipose and fibrous tissues, ImagePro) [1, 5]: largely restored the tissue composition; also recorded: almost normal
- anti-laminin staining of repair tissue [1, 6]: stained strongly with anti-laminin antibodies
- repair of muscle injury (Masson's trichrome sections) [1, 6]: almost completely repaired
- amount of adipose and fibrous tissue (histo-morphometric analysis, ImagePro) ([1]; Day 5-9 treated group, Masson's trichrome, FIG. 6): least amount of adipose and fibrous tissue among all injured groups
- histological analysis of muscle defect ([1]; anterior tibial muscle, 300 μg/day by gavage on day 8, 10 and 12, 2 and 4 weeks): filled with muscle fibers aligned along the major longitudinal axis of the anterior tibial muscle
- myosin heavy chain (MHC) immunostaining of defect site ([1]; calf muscle, 300 μg/day by gavage on day 8, 10 and 12, day 14): many of these cells were MHC positive
- histology of muscle defect site ([1]; calf muscle, 300 μg/day by gavage on day 8, 10 and 12 after injury, day 14): filled with many elongated muscle-like cells
- HE histology of muscle defect ([1]; treated at days 1-3, 4 weeks after injury): decreased adipose and fibrous scar tissue formation but left a partial defect
- HE histology of muscle defect ([1]; treated at days 5-7, 4 weeks after injury): completely filled with newly generated muscle fibers

Structure (SMILES): CC1(C)CCC(C)(C)c2c1cc(C(=O)Nc1cc(F)c(C(=O)O)c(F)c1)c(O)c2Cl [NRX195183]
- formation of elongated multinucleated muscle cells ([2]; 1 μM): formed only in RAR gamma-agonist treated cultures
- macroscopic appearance of injury site [1, 7]: still clearly visible as large whitish spots
- tissue composition (histomorphometric quantification) [1, 7]: did not improve tissue composition

Structure (SMILES): CC1(C)CCC(C)(C)c2cc(Cn3cccn3)c(/C=C/c3ccc(C(=O)O)cc3)cc21 [Palovarotene, 4-[(E)-2-[5,6,7,8-Tetrahydro-5,5,8,8-tetramethyl-3-(1H-pyrazol-1-ylmethyl)-2-naphthalenyl]-ethenyl]-benzoic acid]
- muscle repair [1]: induced effective muscle repair

Structure (SMILES): CC1=C(/C=C/C(C)=C/C=C/C(C)=C/C(=O)O)C(C)(C)CCC1 [RA, all-trans retinoic acid]
- formation of elongated multinucleated muscle cells ([2]; 1 μM): formed only in RAR gamma-agonist treated cultures
- fibrous tissue area ([1]; 300 μg by gavage on day 8, 10 and 12, 4 weeks): significant increase of fibrous tissue area
- macroscopic appearance of injury site [1, 5]: still clearly visible as large whitish spots
- muscle fiber area ([1]; 300 μg by gavage on day 8, 10 and 12, 4 weeks, control 33%, normal 90%): 54%
- binding affinity to the three RAR subtypes (RAR subtypes): approximately equal affinity
- binding to the RXR receptors (RXR receptors): does not bind
